Measured values: ChEMBL document CHEMBL1131100, “2-Iminopyrrolidines as potent and selective inhibitors of human inducible nitric oxide synthase” (J Med Chem, 1998)

How the values were obtained:
Nitric oxide synthase 1 [1] = biological target: T1, Nitric oxide synthase 1 (Homo sapiens, UniProt P29475); assay: Inhibition of cloned (from RNA) human Neuronal nitric oxide synthase
Nitric oxide synthase 3 = biological target: T2, Nitric oxide synthase 3 (Homo sapiens, UniProt P29474); assay: Inhibition of cloned (from RNA) human endothelial constitutive Endothelial nitric oxide synthase (heNOS)
T2 sequence (P29474 whole entry): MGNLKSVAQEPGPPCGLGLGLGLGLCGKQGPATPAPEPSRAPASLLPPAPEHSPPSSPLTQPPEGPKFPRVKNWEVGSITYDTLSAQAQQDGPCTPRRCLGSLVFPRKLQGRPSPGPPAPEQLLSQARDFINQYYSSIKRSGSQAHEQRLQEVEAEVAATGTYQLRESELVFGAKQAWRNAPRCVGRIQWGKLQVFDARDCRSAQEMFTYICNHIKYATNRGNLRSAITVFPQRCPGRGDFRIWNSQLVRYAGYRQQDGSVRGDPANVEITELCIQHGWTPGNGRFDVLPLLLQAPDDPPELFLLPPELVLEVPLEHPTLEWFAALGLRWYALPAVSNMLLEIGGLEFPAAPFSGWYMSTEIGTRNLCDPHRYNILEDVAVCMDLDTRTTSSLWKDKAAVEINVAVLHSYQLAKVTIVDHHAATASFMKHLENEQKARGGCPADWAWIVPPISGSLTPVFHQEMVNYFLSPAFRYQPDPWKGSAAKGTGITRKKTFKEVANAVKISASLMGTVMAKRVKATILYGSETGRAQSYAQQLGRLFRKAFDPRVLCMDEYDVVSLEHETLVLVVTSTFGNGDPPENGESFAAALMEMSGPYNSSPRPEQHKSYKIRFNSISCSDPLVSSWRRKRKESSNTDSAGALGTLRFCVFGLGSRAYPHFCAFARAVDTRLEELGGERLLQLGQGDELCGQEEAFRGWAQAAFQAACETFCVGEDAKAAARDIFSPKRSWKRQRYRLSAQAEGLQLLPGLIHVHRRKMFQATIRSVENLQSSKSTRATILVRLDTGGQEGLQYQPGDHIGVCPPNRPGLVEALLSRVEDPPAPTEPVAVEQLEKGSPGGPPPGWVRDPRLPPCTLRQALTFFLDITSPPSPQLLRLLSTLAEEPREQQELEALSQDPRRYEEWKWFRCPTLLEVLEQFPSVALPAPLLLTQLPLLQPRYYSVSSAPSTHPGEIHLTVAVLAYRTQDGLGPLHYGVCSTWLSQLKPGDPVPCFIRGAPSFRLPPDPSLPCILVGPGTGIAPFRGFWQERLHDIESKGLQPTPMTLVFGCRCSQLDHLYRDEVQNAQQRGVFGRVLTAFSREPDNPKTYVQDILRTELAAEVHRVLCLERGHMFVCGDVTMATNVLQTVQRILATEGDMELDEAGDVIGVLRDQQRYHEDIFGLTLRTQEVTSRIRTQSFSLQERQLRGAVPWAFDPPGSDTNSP

[2] = biological target: T3, Nitric oxide synthase, inducible (Homo sapiens, UniProt P35228); assay: Inhibition of cloned (from RNA) human inducible nitric oxide synthase (hiNOS)
[3] = biological target: T3, Nitric oxide synthase, inducible; assay: Inhibition of cloned (from RNA) human inducible nitric oxide synthase (hiNOS) at 100 uM
[4] = biological target: T4, Nitric oxide synthase 3 (Homo sapiens) (UniProt P29474); assay: Inhibition of cloned (from RNA) human endothelial constitutive Endothelial nitric oxide synthase (heNOS)at 100 uM
T4 sequence (whole entry): T2 sequence (P29474 whole entry)

Nitric oxide synthase 1 [5] = biological target: T1, Nitric oxide synthase 1; assay: Inhibition of cloned (from RNA) human Neuronal nitric oxide synthase at 100 uM
[6] = biological target: T4, Nitric oxide synthase 3 (Homo sapiens); assay: Inhibition of cloned (from RNA) human endothelial constitutive Endothelial nitric oxide synthase (heNOS) at 100 uM
[7] = biological target: T3, Nitric oxide synthase, inducible; assay: Inhibition of cloned (from RNA) human inducible nitric oxide synthase (hiNOS)at 100 uM

T1 sequence (P29475 whole entry): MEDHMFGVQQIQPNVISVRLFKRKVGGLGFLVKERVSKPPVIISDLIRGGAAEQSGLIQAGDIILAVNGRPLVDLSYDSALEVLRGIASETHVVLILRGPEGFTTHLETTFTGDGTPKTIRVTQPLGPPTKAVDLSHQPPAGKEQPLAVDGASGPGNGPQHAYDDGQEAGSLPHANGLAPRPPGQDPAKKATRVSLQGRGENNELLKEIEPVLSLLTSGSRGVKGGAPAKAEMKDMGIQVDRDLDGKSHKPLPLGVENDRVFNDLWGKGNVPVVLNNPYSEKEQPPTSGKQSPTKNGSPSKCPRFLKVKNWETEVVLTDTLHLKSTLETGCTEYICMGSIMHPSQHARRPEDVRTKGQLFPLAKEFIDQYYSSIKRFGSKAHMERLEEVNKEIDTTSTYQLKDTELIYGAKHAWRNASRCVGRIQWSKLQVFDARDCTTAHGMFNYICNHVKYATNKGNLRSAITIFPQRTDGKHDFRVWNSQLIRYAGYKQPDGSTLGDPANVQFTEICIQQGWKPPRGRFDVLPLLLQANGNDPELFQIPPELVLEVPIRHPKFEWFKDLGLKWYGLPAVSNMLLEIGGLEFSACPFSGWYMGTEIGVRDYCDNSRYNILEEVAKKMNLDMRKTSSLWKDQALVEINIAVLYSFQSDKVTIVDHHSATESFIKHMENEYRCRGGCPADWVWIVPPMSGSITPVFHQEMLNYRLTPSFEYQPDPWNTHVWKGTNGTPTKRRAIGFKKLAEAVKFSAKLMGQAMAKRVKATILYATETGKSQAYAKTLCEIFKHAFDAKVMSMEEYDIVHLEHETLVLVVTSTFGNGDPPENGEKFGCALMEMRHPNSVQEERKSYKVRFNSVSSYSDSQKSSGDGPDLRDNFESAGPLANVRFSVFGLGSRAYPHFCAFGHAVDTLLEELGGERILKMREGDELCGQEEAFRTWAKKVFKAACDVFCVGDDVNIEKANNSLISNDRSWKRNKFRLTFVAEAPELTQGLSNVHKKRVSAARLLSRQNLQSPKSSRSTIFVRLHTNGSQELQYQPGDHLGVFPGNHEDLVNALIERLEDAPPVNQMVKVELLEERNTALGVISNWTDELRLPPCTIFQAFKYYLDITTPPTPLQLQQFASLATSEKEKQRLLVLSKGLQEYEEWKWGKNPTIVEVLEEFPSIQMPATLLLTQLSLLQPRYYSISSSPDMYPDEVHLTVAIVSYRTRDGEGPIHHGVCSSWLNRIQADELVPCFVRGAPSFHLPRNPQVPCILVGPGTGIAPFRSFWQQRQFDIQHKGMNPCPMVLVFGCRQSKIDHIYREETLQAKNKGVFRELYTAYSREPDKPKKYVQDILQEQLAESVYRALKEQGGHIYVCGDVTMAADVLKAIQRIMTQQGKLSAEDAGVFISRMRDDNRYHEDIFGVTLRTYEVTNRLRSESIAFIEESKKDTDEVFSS
T3 sequence (P35228 whole entry): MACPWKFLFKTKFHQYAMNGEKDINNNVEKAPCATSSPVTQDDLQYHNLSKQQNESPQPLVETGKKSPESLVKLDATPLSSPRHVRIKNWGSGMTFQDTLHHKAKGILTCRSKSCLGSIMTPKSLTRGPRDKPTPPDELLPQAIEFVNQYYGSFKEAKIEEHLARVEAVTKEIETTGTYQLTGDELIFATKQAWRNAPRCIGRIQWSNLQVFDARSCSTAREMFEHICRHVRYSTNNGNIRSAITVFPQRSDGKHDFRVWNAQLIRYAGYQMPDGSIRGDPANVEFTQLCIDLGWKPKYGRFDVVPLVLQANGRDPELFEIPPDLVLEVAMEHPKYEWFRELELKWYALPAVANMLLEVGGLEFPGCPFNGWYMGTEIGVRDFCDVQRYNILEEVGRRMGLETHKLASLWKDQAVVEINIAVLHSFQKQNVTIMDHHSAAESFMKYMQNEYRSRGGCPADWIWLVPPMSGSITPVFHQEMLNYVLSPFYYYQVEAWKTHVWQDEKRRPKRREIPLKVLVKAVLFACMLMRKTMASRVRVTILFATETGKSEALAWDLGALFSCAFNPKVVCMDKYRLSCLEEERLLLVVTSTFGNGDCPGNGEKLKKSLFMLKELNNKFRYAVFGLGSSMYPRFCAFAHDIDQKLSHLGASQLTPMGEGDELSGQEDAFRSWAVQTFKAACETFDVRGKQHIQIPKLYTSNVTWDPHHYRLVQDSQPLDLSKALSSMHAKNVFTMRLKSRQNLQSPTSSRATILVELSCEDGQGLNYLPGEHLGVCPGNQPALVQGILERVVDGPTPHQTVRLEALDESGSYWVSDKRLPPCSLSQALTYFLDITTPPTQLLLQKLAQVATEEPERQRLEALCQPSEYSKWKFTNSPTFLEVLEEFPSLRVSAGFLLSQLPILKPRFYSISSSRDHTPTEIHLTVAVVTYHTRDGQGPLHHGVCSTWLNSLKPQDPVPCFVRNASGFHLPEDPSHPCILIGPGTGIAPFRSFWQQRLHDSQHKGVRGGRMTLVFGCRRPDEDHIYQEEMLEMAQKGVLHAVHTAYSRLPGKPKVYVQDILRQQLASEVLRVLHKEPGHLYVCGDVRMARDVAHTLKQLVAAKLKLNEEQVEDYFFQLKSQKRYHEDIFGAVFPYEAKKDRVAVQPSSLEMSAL

SMILES	IC50 (Nitric oxide synthase 1 [1]) [µM]	IC50 (Nitric oxide synthase 3) [µM]	IC50 [2] [µM]	inhibition [3] [%]	inhibition [4] [%]	inhibition (Nitric oxide synthase 1 [5]) [%]	inhibition [6] [%]	inhibition [7] [%]
CCCC1N=C(N)CC1C (stereo unspecified)	0.39	3.5	0.3	–	–	–	–	–
CC1CN=C(N)C1 (stereo unspecified)	4.7	14.2	1.4	–	–	–	–	–
CCC1CN=C(N)C1 (stereo unspecified)	5.46	29.8	3.4	–	–	–	–	–
CC1CCN=C1N (stereo unspecified)	3	9.1	11.3	–	–	–	–	–
CCC1N=C(N)CC1C (stereo unspecified)	0.17	1.6	0.17	–	–	–	–	–
CCCCC1N=C(N)CC1C (stereo unspecified)	0.85	23.6	0.66	–	–	–	–	–
CC1CCC(N)=N1 (stereo unspecified)	9.8	24.9	10.2	–	–	–	–	–
CC1(C)CC(N)=NC1Cc1ccccc1 (stereo unspecified)	–	–	–	12	3	17	–	–
CCCCCC1N=C(N)CC1(C)C (stereo unspecified)	–	–	–	–	–	46	17	64
NC1=NC(Cc2ccccc2)CC1 (stereo unspecified)	–	–	–	26	–	47	16	–
CCCCCC1N=C(N)CC1C (stereo in doubt; 9)	1.31	47.5	0.91	–	–	–	–	–
CCCCCC1N=C(N)CC1C (stereo in doubt; 10)	5.37	243	0.36	–	–	–	–	–
CC1CC(N)=NC1Cc1ccccc1 (stereo in doubt; 11)	8.29	458	3	–	–	–	–	–
CCCCCC1N=C(N)CC1C(F)(F)F (stereo in doubt; 13)	9.05	336	10	–	–	–	–	–
CCCCCC1N=C(N)CC1C(F)(F)F (stereo in doubt; 14)	5.44	392	0.81	–	–	–	–	–
CC1CC(N)=NC1Cc1ccccc1 (stereo in doubt; 16)	11.2	639	14	–	–	–	–	–
NC1=NC(Cc2ccccc2)C(C(F)(F)F)C1 (stereo in doubt; 17)	12.1	1010	22	–	–	–	–	–
NC1=NC(Cc2ccccc2)C(C(F)(F)F)C1 (stereo in doubt; 18)	38.3	2920	74	–	–	–	–	–
CCCCCC1N=C(N)CC1C (stereo in doubt; 20)	3.2	226	0.25	–	–	–	–	–
CCCCCC1N=C(N)CC1C (stereo in doubt; 21)	20.6	578	4.5	–	–	–	–	–
CCCCCC1N=C(N)CC1C(F)(F)F (stereo in doubt; 22)	2.53	212	0.23	–	–	–	–	–
CCCCCC1N=C(N)CC1C(F)(F)F (stereo in doubt; 23)	45.7	1680	7.5	–	–	–	–	–
